We go through 80 compounds from the METLIN SMRT retention time set (Domingo-Almenara et al. 2019).

Molecules are shown by their SMILES.

This series is described as follows: gradient 5% acetonitrile 3 min, to 50% in 2 min, to 85% in 15 min, held 3 min, 100 µL/min. Conditions: column: Zorbax Extend-C18 2.1 x 50 mm; eluents: water / acetonitrile, 0.1% formic acid. An outline of the steps:
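Retention times of pure standards were taken from adduct peaks that were selected by computer and manually inspected. Over 3 months, mixtures of ~100 molecules were run by HPLC–quadrupole time-of-flight mass spectrometry in positive and negative ionization mode. The Zorbax Extend-C18 column (2.1 × 50 mm, 1.8 μm) ran at 100 μL/min in water and acetonitrile, each containing 0.1% formic acid, with 40 μL dead volume and 900 μL dwell volume.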
`CCOC(=O)c1nc(N(Cc2cccs2)C2CCCC2)c2ccccc2n1` gave an RP-LC retention time of 1120 s.

For `CSc1ccc(-c2nc3ccccn3c2Nc2ccc(C)cc2)cc1`, the RP-LC retention time turned out to be 781 s.

Turning to `CCC(C)NC(=O)CN1C(=O)CSc2c1c(C)nn2-c1ccccc1` (stereo not given), the RP-LC retention time stood at 764 s.

For the compound `O=C(NC1CCCC1)N1CCC2(CC1)N(c1ccccc1)C(=O)CS2=O` (stereo not given), the RP-LC retention time is 648 s.

In the case of `CCOCC(=O)N1CCC2(CCC2O)CC1` (stereo not given), the RP-LC retention time was 598 s.

Turning to `CCOc1ccc(CNC(=O)C2CCN(c3cncnc3N3CCOCC3)CC2)cc1`, the RP-LC retention time amounted to 635 s.

For the compound `COc1cccc(NC(=O)C2CC(=O)N(c3ccc4c(c3)CCN4C(C)=O)C2)c1` (stereo not given), the RP-LC retention time was 693 s.

Compound `O=C(NCCc1nc2cccnc2n1Cc1ccccc1)NCc1ccco1` returned an RP-LC retention time of 678 s.

The compound `COc1ccc(-c2nnc(-c3ccccc3)o2)cc1S(=O)(=O)N1CCC(C)CC1` showed an RP-LC retention time of 1090 s.

Turning to `Cc1ccc(C(=O)Nc2c(-c3ccccc3)nc3ccccn23)cc1[N+](=O)[O-]`, the RP-LC retention time came out at 693 s.

Turning to `O=C(C1CCN(c2nnc(-n3cccc3)s2)CC1)N1CCN(c2ccccn2)CC1`, the RP-LC retention time was determined as 640 s.

In turn, `CCn1c(=O)c(N2CCC(NC(=O)Nc3ccc4c(c3)OCCO4)CC2)nc2ccccc21` displayed an RP-LC retention time of 838 s.

Compound `O=S(=O)(c1ccccc1)N1CCC(c2noc(-c3ccc(F)cc3)n2)CC1` returned an RP-LC retention time of 791 s.

As to `COc1ccc(NC(=O)N2CCC3(CC2)CN(c2ccccc2)C3=O)cc1OC`, the RP-LC retention time came out at 771 s.

Regarding `CCc1ccccc1NC(=O)C1CCN(S(=O)(=O)c2ccc3c(c2)sc(=O)n3CC)CC1`, the RP-LC retention time stood at 932 s.

As to `Cc1cc(SCC(N)=O)nc2ccccc12`, the RP-LC retention time amounted to 664 s.

In turn, `O=C(Cn1cnc2nc(N3CCCC(C(=O)NC4CC4)C3)sc2c1=O)Nc1ccccc1` (stereo not given) returned an RP-LC retention time of 663 s.

`Cc1cc(C(=O)Nc2ccc(F)c(F)c2)nc2cc(-c3ccco3)nn12` registered an RP-LC retention time of 810 s.

In turn, `COc1ccc(-c2csc(Nc3ccc(C(=O)O)cc3)n2)cc1` yielded an RP-LC retention time of 876 s.

Compound `NC(=O)[C@@H]1C[C@H](Oc2cccnc2)CN1C(=O)Cn1c(=O)oc2ccccc21` had an RP-LC retention time of 564 s.

The compound `Cc1cc(NC(=O)Nc2ccc3c(ccn3C)c2)sn1` returned an RP-LC retention time of 736 s.

Compound `CCn1ccc(C(=O)N2CCC(c3nc4cccnc4n3CCOC)C2)n1` (stereo not given) gave an RP-LC retention time of 606 s.

As to `CC(=O)N1CCC(C(=O)NCc2ccccc2)(N(C(=O)c2ccc(C)cc2)C2CCCC2)CC1`, the RP-LC retention time was 942 s.

In the case of `COc1ccc(NC(=O)C2CCc3nc(N4CCCC4)ncc3C2)cc1OC` (stereo not given), the RP-LC retention time worked out at 719 s.

Turning to `Cc1ccc(-c2ccnc3c(C(=O)NC(C)c4ccncc4)cnn23)cc1C` (stereo not given), the RP-LC retention time came out at 668 s.

`COc1ccc(-c2cn3cccnc3n2)cc1NS(=O)(=O)c1ccc(Br)cc1` gave an RP-LC retention time of 721 s.

`COCCn1c(SCc2nc(-c3cccc(F)c3)no2)nc2cc3c(cc2c1=O)OCO3` came in with an RP-LC retention time of 1090 s.

`CCN1CCn2cc(S(=O)(=O)Nc3ccc(F)c(C)c3)cc2C1=O`: the RP-LC retention time was found to be 742 s.

`Cc1cc2c(F)c(Oc3ncnn4cc(OC[C@@H](C)O)c(C)c34)ccc2[nH]1` showed an RP-LC retention time of 880 s.

`Cn1nccc1-c1cccc(-c2noc(-c3cccc(NC(=O)c4ccco4)c3)n2)c1` gave an RP-LC retention time of 991 s.

Compound `CCc1ccc(CNC(=O)CCc2c(-c3ccc(Br)cc3)nc3ccccn23)cc1` gave an RP-LC retention time of 753 s.

Consider `CCc1ccc(OCC(=O)Nc2nc(-c3ccc(F)cc3F)cs2)cc1`, for which the RP-LC retention time came out at 1260 s.

`CC1=NN(c2nc3ccccc3[nH]2)C(=O)C1Cc1ccccc1` (stereo not given) came in with an RP-LC retention time of 796 s.

For `Cc1ccc(-n2nccn2)c(C(=O)N2CCN(c3nc4cc(Cl)ccc4o3)CC[C@H]2C)c1`, the RP-LC retention time came to 1080 s.

`Fc1ccc(-c2nc3cnc(Br)cn3c2Nc2ccc3c(c2)OCCO3)cc1` showed an RP-LC retention time of 961 s.

`Cc1nnc(C2CCCN(C(=O)CCc3c(C)noc3C)C2)s1` (stereo not given): the RP-LC retention time came to 606 s.

The compound `O=C(Cc1cccs1)NCC1CCN(C(=O)Oc2ccccc2)CC1` registered an RP-LC retention time of 635 s.

For the compound `O=C(c1c(F)cccc1F)N1CCN=C1N1CCN(c2ccccc2F)CC1`, the RP-LC retention time came out at 720 s.

`O=S(=O)(c1ccccc1Cl)N1CC(c2nc(Cc3ccccc3)no2)C1` gave an RP-LC retention time of 951 s.

Turning to `CCCSCCCNC(=O)C1CCCN(c2nc3ccccc3n(CC)c2=O)C1` (stereo not given), the RP-LC retention time turned out to be 1040 s.

For the compound `COc1ccc(C)cc1NC(=O)N1CCCC1c1nc(-c2ccccc2OC)no1` (stereo not given), the RP-LC retention time amounted to 940 s.

In turn, `COc1ccc(N2CC(NC(=O)NN3CCOCC3)CC2=O)cc1` (stereo not given) showed an RP-LC retention time of 587 s.

Compound `COc1ccc(N2CCN(C(=O)c3sc4ncccc4c3-n3cccc3)CC2)cc1` gave an RP-LC retention time of 917 s.

`COc1ccccc1Nc1nc(-c2ccc(C)cc2)c(C)s1` showed an RP-LC retention time of 1210 s.

With `Cc1nc(-c2cn(C(C)C)c3ncccc23)sc1C(=O)N1CCN(CC(C)C)CC1`, the RP-LC retention time is 661 s.

`CCn1cnc2ccc(-c3noc(-c4ccc(C)cc4)n3)cc21` displayed an RP-LC retention time of 832 s.

For `CC(C)(C)CCN1CCCC(COc2ccccc2C(=O)N2CCCC2)C1` (stereo not given), the RP-LC retention time was 668 s.

With `CCOc1ccc(NC(=O)C2CCN(S(=O)(=O)c3cn(C)cn3)CC2)cc1`, the RP-LC retention time amounted to 699 s.

Compound `Cn1c(=O)c2cc(C(=O)Nc3ccc(F)cc3Cl)sc2n(C)c1=O` had an RP-LC retention time of 797 s.

Compound `O=C(Nc1ccc(Br)cc1F)Nc1c(-c2ccncc2)nc2ccccn12` gave an RP-LC retention time of 652 s.

Consider `COc1ccc(NC(=O)N2CCCC2c2nc(-c3ccccc3)no2)cc1` (stereo not given), for which the RP-LC retention time came out at 876 s.

In turn, `Cc1noc(-c2nc(-c3ccc(Cl)cc3)no2)n1` gave an RP-LC retention time of 1070 s.

In turn, `O=C(NCc1csc(-c2ccccc2)n1)[C@H]1CCCN1C(=O)Nc1ccc(Br)cc1` came in with an RP-LC retention time of 874 s.

Consider `CCn1cc(-c2nc(C(=O)Nc3cc(F)ccc3C)cs2)c2cccnc21`, for which the RP-LC retention time came to 899 s.

In turn, `CN(C)C(=O)c1ccc2oc(CN3CCN(C(=O)NC(C)(C)C)CC3)nc2c1` had an RP-LC retention time of 597 s.

As for `COc1ccc(-c2noc(-c3nc(Cc4cccc(F)c4)no3)n2)cc1OC`, the RP-LC retention time came out at 1100 s.

The compound `COc1cccc(NC(=O)C2CCN(S(=O)(=O)c3cc(C(=O)N4CCOCC4)cs3)CC2)c1` yielded an RP-LC retention time of 747 s.

For `O=C(OCC(=O)c1ccc(Cl)cc1Cl)c1ccc2ccccc2n1`, the RP-LC retention time was determined as 991 s.

For `Cc1nc(-c2ccc(S(=O)(=O)Nc3cccnc3)cc2)co1`, the RP-LC retention time was determined as 640 s.

In the case of `CN1C(=O)NC2(CCN(S(=O)(=O)c3cccnc3)CC2)C1=O`, the RP-LC retention time turned out to be 589 s.

For the compound `O=c1ccn(-c2ccc(F)c(F)c2)nc1-c1nc(-c2ccccc2F)no1`, the RP-LC retention time amounted to 863 s.

For `Cc1ccccc1C1CC(=O)c2c(C)nc(N3CCN(CCO)CC3)nc2C1` (stereo not given), the RP-LC retention time was determined as 656 s.

In turn, `O=c1n(Cc2ccccc2Cl)nc2ccc(S(=O)(=O)N3CCCC3)cn12` showed an RP-LC retention time of 866 s.

The compound `O=C(Cn1nc2n(c1=O)CCCC2)NCc1ccc2c(c1)OCO2` returned an RP-LC retention time of 619 s.

`CCOC(=O)C1CCN(C(=O)CCC2CCCN(c3cc(NC4CC4)ncn3)C2)CC1` (stereo not given) registered an RP-LC retention time of 662 s.

In turn, `O=C(Cc1ccc(Cl)cc1)Nc1nc(-c2ccccc2)cs1` displayed an RP-LC retention time of 1020 s.

In turn, `COc1cccc(NC(=O)C2CCCN2S(=O)(=O)c2cc3c(cc2C)NC(=O)CO3)c1` (stereo not given) gave an RP-LC retention time of 722 s.

The compound `N#Cc1cccc(NC(=O)C(=O)c2ccc[nH]2)c1` came in with an RP-LC retention time of 788 s.

As to `CN1CCCc2cc(C(=O)NCc3ccccc3)sc21`, the RP-LC retention time came out at 882 s.

Compound `O=C(C1CC1)N1CCc2sc(S(=O)(=O)Nc3ccc(F)cc3Cl)cc2C1` gave an RP-LC retention time of 870 s.

The compound `COc1ccc2c(ccn2CC(=O)N[C@@H](C)C(=O)O)c1` gave an RP-LC retention time of 665 s.

Turning to `Cc1noc(C2CN(C(=O)c3n[nH]c4ccccc34)CC23CCN(C)CC3)n1` (stereo not given), the RP-LC retention time was found to be 1010 s.

As for `CC(=O)N(Cc1nn(C)c2c1CN(CC1=Cc3ccccc3OC1)CC2)c1ccccc1`, the RP-LC retention time is 654 s.

Compound `O=C(CN1C(=O)NC2(CCCCC2)C1=O)NCc1ccc2c(c1)OCO2` returned an RP-LC retention time of 699 s.

In turn, `Cc1ccc(N2C(=O)C3N=NN(Cc4nc(-c5cccc(C(F)(F)F)c5)no4)C3C2=O)cc1` (stereo not given) gave an RP-LC retention time of 1080 s.

Consider `CCN1C(=O)C2(CCN(S(=O)(=O)Cc3ccccc3Cl)CC2)c2ccccc21`, for which the RP-LC retention time came out at 1030 s.

Compound `Brc1ccc(-c2ccc(CNCc3ccc4c(c3)OCO4)o2)cc1` came in with an RP-LC retention time of 776 s.

As to `O=C(Nc1ccccc1)c1cn(CC2CCCO2)cc2c(=O)n(-c3ccccc3)nc1-2` (stereo not given), the RP-LC retention time was 993 s.

`CC(C)C(=O)Nc1ccc(C2(C(=O)N3CCN(C(C)C)CC3)CCCCC2)cc1` returned an RP-LC retention time of 652 s.

Turning to `CCCN(CCC)S(=O)(=O)c1ccc(Cl)c(OC)c1`, the RP-LC retention time worked out at 1030 s.
